The nature of test [1]: Bleaching action in washing agents (LINITEST, DY increase). The note with it: 1:1 Mn complex with ligand, H2O2 8.6 mmol/l, 30 minutes at 40° C. How it is done:
7.5 g of white cotton fabric and 2.5 g of tea-stained cotton fabric are treated in 80 ml of washing liquor. The liquor contains a standard washing agent (ECE, 456 IEC) in a concentration of 7.5 g/l. The hydrogen peroxide concentration is 8.6 mmol/l. […] The washing process is carried out in a steel beaker in a LINITEST apparatus for 30 minutes at 40° C. For evaluating the bleaching results, the increase in the lightness DY (difference in lightness according to CIE) of the stains brought about by the treatment is determined spectrophotometrically in comparison with values obtained without the addition of catalyst.

The nature of test [2]: Cleaning performance on soiled surfaces at 53° C. As to conditions: for Difference (rating minus rating of reference): 1:1 manganese complex 7.3 μM, 53° C., reference = catalyst-free system; for Rating: 1:1 manganese complex with ligand 7.3 μM, H2O2 1.1 mM, pH 10.0, 23° to 53° C., visual scale 1 (no cleaning) to 10 (clean). How it is done: (§1) A tea-stained cup is filled with 100 ml of a buffer solution (10 mM carbonate, pH=10.0) containing 1.1 mM of hydrogen peroxide and 7.3 μM of 1:1 manganese complex (prepared as described in Application Example 2). Using a thermostat, the temperature of the solution is raised from 23° to 53° C. over a period of 12 minutes and maintained at the final temperature for 23 minutes. After rinsing and drying in air, the results are evaluated visually on a scale of 1 (no cleaning) to 10 (clean). The catalyst-free system is used as reference.

Test [3] can be described thus: Decomposition of hydrogen peroxide (iodometric). The note with it: 1:1 manganese complex with ligand 7.3 μM, initial H2O2 1.1 mM. On the procedure: as §1
The procedure is as in Application Example 3 but the consumption of H2O2 is determined iodometrically.

Test [4] can be described thus: Catalytic action for the epoxidation of olefins. As to conditions: ligand 0.05 mmol with manganese(II) acetate tetrahydrate 0.04 mmol, sodium ascorbate, H2O2; 14 hours at room temperature; by 1H-NMR. How it is done:
17 mg (0.05 mmol) of 2-[(2-hydroxy-ethyl)-[2,2′;6′,2″]terpyridin-4′-yl-amino]-ethanol (L7, Example 7), 10 mg (0.04 mmol) of manganese(II) acetate tetrahydrate and 0.32 mmol of sodium ascorbate are added to a solution of 1.09 ml (10 mmol) of ethyl acrylate in 0.5 ml of acetonitrile. The mixture is cooled in an ice bath and a 30% strength hydrogen peroxide solution (2.27 g, 20 mmol) is added dropwise thereto in the course of 20 minutes. The mixture is then left for 14 hours at room temperature, then diluted with diethyl ether and the phases are separated. The organic extract is dried over sodium sulfate, filtered and concentrated. The catalytic turnover number for the epoxide formed, ethyl oxirane-2-carboxylate, is determined by comparing the intensity of the epoxide methine proton at 3.34-3.38 ppm with the ligand signal L7 at 8.53 ppm as reference and is 35±8. Ethyl oxirane-2-carboxylate, epoxide signals ^1H-NMR (360 MHz, CDCl3): 2.68-2.89 (m, 2H, CH2); 3.34-3.38 (m, 1H, CH). Without the addition of ligand, epoxide cannot be detected.

A short description of test [5]: Action as catalyst for DTI (dye transfer inhibition). As to conditions: 1:1 manganese complex 50 μmol/l; H2O2 8.6 mmol/l; Direct Brown 172 10 mg/l; 30 minutes at 40° C. On the procedure:
7.5 g of white cotton fabric are treated in 80 ml of washing liquor. The liquor contains a standard washing agent (ECE, 456 IEC) in a concentration of 7.5 g/l. The hydrogen peroxide concentration is 8.6 mmol/l. The catalyst concentration (of manganese(II) chloride tetrahydrate with the ligand, prepared in methanolic solution with the addition of a small amount of lithium hydroxide) is 50 μmol/l, and a solution of the test dye Direct Brown 172 having 10 mg/l of the 250% formulation. The washing process is carried out in a steel beaker in a LINITEST apparatus for 30 minutes at 40° C. For testing the activity of the catalysts, the DTI activity is determined.
The reflection spectra of the samples were measured using a SPECTRAFLASH 2000 and converted into lightness values (D65/10) in accordance with a standard CIE procedure.

Test [6] can be described thus: Activity of the manganese catalysts after the bleaching cycle. The note with it: for Difference DDY: versus H2O2 without Mn complex. How it is done: 7.5 g of white cotton fabric and 2.5 g of tea-stained cotton fabric are treated in 80 ml of washing liquor. The liquor contains a standard washing agent (ECE, 456 IEC) in a concentration of 7.5 g/l. The hydrogen peroxide concentration is 8.6 mmol/l. The catalyst concentration (1:1 complex of manganese(II) chloride tetrahydrate with the ligand in question, prepared in methanolic solution with the addition of a small amount of lithium hydroxide) is 50 μmol/l. The washing process is carried out in a steel beaker in a LINITEST apparatus for 30 minutes at 40° C. For evaluating the bleaching results, the increase in the lightness DY (difference in lightness according to CIE) of the stains brought about by the treatment is determined spectrophotometrically in comparison with values obtained without the addition of catalyst.
The procedure as described in Application Example 2 is carried out for the 1st cycle, the cotton fabric is removed and for the 2nd cycle the procedure is carried out afresh with a new, as yet untreated cotton fabric. The DY values are determined as described in Application Example 2.

A short description of test [7]: Catalytic bleaching of cellulose. As to conditions: catalytically bleached; 20 μM catalyst, 8.6 mM H2O2, pH 10.0, 40° C., 30 minutes; untreated sample 63.4. How it is done:
20 g of cellulose [TPP-CT CSF129, Ref. No. P-178635 (ISO 57.4)] are steeped in a litre of water for 65 hours and then stirred in a mixer for 2 minutes to give a paste-like pulp. A bleaching bath containing 50 g of the pulp so prepared in 180 ml of water, 100 μM of Dequest 2041 (sequestering agent), 8.6 mM of hydrogen peroxide and 20 μM of catalyst from Example 35 is maintained at 40° C. for 30 minutes. At the same time 1N sodium hydroxide solution is metered-in in such a manner that a pH of 10.0 is maintained. Filtration and air-drying are then carried out. A sample that has been compressed to form a circular sheet of 10 cm diameter is then tested for the lightness Y obtained (according to CIE, reflectance spectroscopy).

Test [8] can be described thus: Cleaning performance on soiled surfaces at 23° C. As to conditions: 0.16 g/l, constant 23° C., 45 minutes. How it is done: as §1
The procedure is as in Application Example 3 but the cleaning is carried out at a constant temperature of 23° C. (duration: 45 minutes).

Where [9] appears, read: 50 μmol/l, ECE washing agent 7.5 g/l, versus no catalyst.

Molecule `O=c1cc(-c2ccccn2)[nH]c(-c2ccccn2)c1` [Ligand L1, 1′H-[2,2′;6′,2″]Terpyridin-4′-one] had a DY increase in test [1] (setting [9]) of 5.0. Further, in test [2], the “Difference (rating minus rating of reference)” value came to 1.9 and the Rating is listed as 5.0 (3.1). The “Residual H2O2” value in test [3] (procedure of Application Example 3) is reported as 0.73 mM. The molecule also came in with a Consumption in test [3] (H2O2 consumption) of 34%.

In test [1] (setting [9]), `NNc1cc(-c2ccccn2)nc(-c2ccccn2)c1` [Ligand L4, [2,2′;6′,2″]Terpyridin-4′-yl-hydrazine] displayed a DY increase of 5.0.

Turning to `CN(CCO)c1cc(-c2ccccn2)nc(-c2ccccn2)c1` [Ligand L5, 2-(Methyl-[2,2′;6′,2″]terpyridin-4′-yl-amino)-ethanol], in test [1] (setting [9]), the DY increase was 5.2.

`c1ccc(-c2cc(N3CCCC3)cc(-c3ccccn3)n2)nc1` [Ligand L6, 4′-Pyrrolidin-1-yl-[2,2′;6′,2″]terpyridine] displayed a DY increase in test [1] (setting [9]) of 5.8. Besides, in test [2], the “Difference (rating minus rating of reference)” value stood at 3.9 and the Rating is given as 7.2 (3.3).

In the case of `OCCN(CCO)c1cc(-c2ccccn2)nc(-c2ccccn2)c1` [Ligand L7, 2-[(2-Hydroxy-ethyl)-[2,2′;6′,2″]terpyridin-4′-yl-amino]-ethanol], the “Catalytic turnover number for the epoxide formed, ethyl oxirane-2-carboxylate” value in test [4] turned out to be 35±8. Besides, the DTI activity a in test [5] is listed as 90%. This molecule also displayed a DY increase in test [1] (setting [9]) of 5.6. The “Bleaching value with H2O2 and the 1:1 Mn complex (DY)” value is reported as “DY = 23.0” in test [6] (1st cycle) and “DY = 19.0” in test [6] (2nd cycle, same liquor, new fabric). Further, the “Difference DDY” value in test [6] (1st cycle) amounted to 8.1; in test [6] (2nd cycle), 8.0. The “Difference (rating minus rating of reference)” value in test [2] came to 3.6. Moreover, the Rating in test [2] is reported as 6.9 (3.3).

`CN1CCN(c2cc(-c3ccccn3)nc(-c3ccccn3)c2)CC1` [Ligand L8, 4′-(4-Methyl-piperazin-1-yl)-[2,2′;6′,2″]terpyridine] returned a DY increase in test [1] (setting [9]) of 5.0.

With `c1ccc(-c2cc(N3CCCCCC3)cc(-c3ccccn3)n2)nc1` [Ligand L9, 4′-Azepan-1-yl-[2,2′;6′,2″]terpyridine], in test [1] (setting [9]), the DY increase stood at 3.8.

In test [1] (setting [9]), `c1ccc(-c2cc(N3CCCCC3)cc(-c3ccccn3)n2)nc1` [Ligand L10, 4′-Piperidin-1-yl-[2,2′;6′,2″]terpyridine] showed a DY increase of 4.4. For the same molecule, in test [2], the “Difference (rating minus rating of reference)” value is listed as 2.1 and the Rating is recorded as 5.2 (3.1).

In test [1] (setting [9]), `c1ccc(-c2cc(N3CCOCC3)cc(-c3ccccn3)n2)nc1` [Ligand L11, 4′-Morpholin-4-yl-[2,2′;6′,2″]terpyridine] gave a DY increase of 5.5. In test [2], the “Difference (rating minus rating of reference)” value is recorded as 2.4 and the Rating was 5.7 (3.3).

In turn, `CCOc1ccnc(-c2cc(=O)cc(-c3cc(OCC)ccn3)[nH]2)c1` [Ligand L17, 4,4″-Diethoxy-1′H-[2,2′;6′,2″]terpyridin-4′-one] yielded a DY increase in test [1] (setting [9]) of 5.3.

In test [1] (setting [9]), `O=c1cc(-c2cc(N3CCCC3)ccn2)[nH]c(-c2cc(N3CCCC3)ccn2)c1` [Ligand L18, 4,4″-Di-pyrrolidin-1-yl-1′H-[2,2′;6′,2″]terpyridin-4′-one] displayed a DY increase of 3.0.

Regarding `CN(CCO)c1ccnc(-c2cc(=O)cc(-c3cc(N(C)CCO)ccn3)[nH]2)c1` [Ligand L19, 4,4″-Bis[(2-hydroxy-ethyl)-methyl-amino]-1′H-[2,2′;6′,2″]terpyridin-4′-one], in test [1] (half concentration used), the DY increase is recorded as 5.3^1).

As for `CN(CCO)c1ccnc(-c2cc(N(C)CCO)cc(-c3cc(N(C)CCO)ccn3)n2)c1` [Ligand L25, 2-({4′,4″-Bis[(2-hydroxy-ethyl)methyl-amino]-[2,2′;6′,2″]terpyridin-4-yl}-methylamino)-ethanol], in test [1] (setting [9]), the DY increase was 6.2.

As for `CCOc1ccnc(-c2cc(N(CCO)CCO)cc(-c3cc(OCC)ccn3)n2)c1` [Ligand L28, 2-[(4,4″-Diethoxy-[2,2′;6′,2″]terpyridin-4′-yl)-(2-hydroxy-ethyl)-amino]-ethanol], the DY increase in test [1] (setting [9]) is listed as 4.3. Further, in test [2], the “Difference (rating minus rating of reference)” value is 2.2 and the Rating is on record as 5.2 (3.0).

Consider `COc1ccccc1-c1cccc(-c2cccc(-c3cccc(-c4ccccc4OC)n3)n2)n1` [Ligand L29, 6,6″-Bis(2-methoxyphenyl)-2,2′:6′:2″-terpyridine], for which the “Lightness Y” value in test [7] worked out at 66.9.

`CC(=O)N(CCN(C(C)=O)C(C)=O)C(C)=O` [N,N′-tetraacetylethylenediamine (TAED), N,N,N′,N′-tetraacetylethylenediamine]: the “Difference (rating minus rating of reference)” value in test [8] was 2.9. For the same molecule, the Rating in test [8] (scale 1 to 10) is 6.8 (3.9).

Source of the values: patent publication US7692004B2, “Use of metal complex compounds as oxidation catalysts” (Ciba Specialty Chemicals Corporation, priority 2001, dated 2010).
